Laboratory results taken from ChEMBL document CHEMBL1201862, “PubChem BioAssay data set” (2004).
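Cultured in 96-well plates, cells were exposed to test compound for 48 hours across five concentrations. At the GI50, growth is halved.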 Calls of active or inactive are those of the source. Cut-off read from the data, not from the text of the source: active = GI50 up to about 1.1 µM and inactive = higher.

Key:
Assay in all cases: NCI-60 cell line screen, 48 h
[1] = system: HCC 2998
[2] = system: SK-MEL-28
[3] = system: A549
[4] = system: HOP-92
[5] = system: NCI-H23
[6] = system: RXF 393
[7] = system: HCT-15
[8] = system: KM12
[9] = system: U-251
[10] = system: HCT-116
[11] = system: M19-MEL
[12] = system: NCI-H460
[13] = system: CAKI-1
[14] = system: SK-MEL-2
[15] = system: NCI/ADR-RES
[16] = system: MDA-N
[17] = system: T47D
[18] = system: MDA-MB-435
[19] = system: BT-549
[20] = system: PC-3

| SMILES | GI50 [1] | GI50 [2] | GI50 [3] | GI50 [4] | GI50 [5] | GI50 [6] | GI50 [7] | GI50 [8] | GI50 [9] | GI50 [10] | GI50 [11] | GI50 [12] | GI50 [13] | GI50 [14] | GI50 [15] | GI50 [16] | GI50 [17] | GI50 [18] | GI50 [19] | GI50 [20] |
| --- | --- | --- | --- | --- | --- | --- | --- | --- | --- | --- | --- | --- | --- | --- | --- | --- | --- | --- | --- | --- |
| N=C(N)NS(=O)(=O)c1ccc(Nc2c3ccccc3nc3c(C(=O)N4CCN(CCO)CC4)cccc23)cc1 | > 100 µM (inactive) | > 100 µM (inactive) | > 100 µM (inactive) | > 100 µM (inactive) | > 100 µM (inactive) | > 100 µM (inactive) | > 100 µM | > 100 µM (inactive) | > 100 µM (inactive) | > 100 µM (inactive) | > 100 µM (inactive) | > 100 µM (inactive) | > 100 µM (inactive) | > 100 µM (inactive) |  |  |  |  |  |  |
| Cc1cc2nc3ccc(N(C)C)cc3[s+]c2cc1N [TOLONIUM CHLORIDE] | 3.7 µM (inactive) | 13.6 µM (inactive) | 3.22 µM (inactive) | 13.4 µM (inactive) | 2.21 µM (inactive) | 7.52 µM (inactive) | 2.99 µM | 3.84 µM (inactive) | 3.17 µM (inactive) | 1.75 µM (inactive) | 0.184 µM (active) | 2.82 µM (inactive) | 23.5 µM (inactive) | 3.5 µM (inactive) | 2.26 µM (inactive) | 1.09 µM (active) | 5.2 µM (inactive) | 0.977 µM (active) | 11.7 µM (inactive) | 1.58 µM (inactive) |
| OC1C2C=CCC1CCC2 (centres undefined) |  | > 100 µM (inactive) | > 100 µM (inactive) | > 100 µM (inactive) | > 100 µM (inactive) | > 100 µM (inactive) |  | > 100 µM (inactive) | > 100 µM (inactive) | > 100 µM (inactive) | > 100 µM (inactive) | > 100 µM (inactive) | > 100 µM (inactive) | > 100 µM (inactive) |  |  |  |  |  |  |
| CCCCCCCCCCC/C(=N/O)c1ccc(O)c2ncccc12 | 5.28 µM (inactive) | 9.25 µM (inactive) | 5.69 µM (inactive) | 0.275 µM (active) | 10.4 µM (inactive) | 7.67 µM (inactive) |  | 6.41 µM (inactive) | 4.48 µM (inactive) | 6.64 µM (inactive) | 2.11 µM (inactive) | 3.65 µM (inactive) | 3.16 µM (inactive) | 2.4 µM (inactive) |  |  |  |  |  |  |
| CCOC(=O)NN1C(=O)C(=P(c2ccccc2)(c2ccccc2)c2ccccc2)C(C(=O)OCC)=C1C | > 100 µM (inactive) |  | > 100 µM (inactive) | > 100 µM (inactive) | > 100 µM (inactive) | > 100 µM (inactive) | > 100 µM | > 100 µM (inactive) | > 100 µM (inactive) | > 100 µM (inactive) | > 100 µM (inactive) | > 100 µM (inactive) | > 100 µM (inactive) | > 100 µM (inactive) |  |  |  |  |  |  |
| O=C(Cc1ccccc1)Oc1ccc2c(-c3ccccc3)c(C(=O)Nc3ccc(Cl)cc3)c(=O)oc2c1 | > 100 µM (inactive) | > 100 µM (inactive) | > 100 µM (inactive) | > 100 µM (inactive) | > 100 µM (inactive) | > 100 µM (inactive) | > 100 µM | > 100 µM (inactive) | > 100 µM (inactive) | > 100 µM (inactive) | > 100 µM (inactive) | > 100 µM (inactive) | > 100 µM (inactive) |  |  |  |  |  |  |  |
| Cc1cccc2c(=O)c([Se]c3coc4c(C)cccc4c3=O)coc12 | 21.2 µM (inactive) | 16.7 µM (inactive) | 7.71 µM (inactive) | 20.8 µM (inactive) | 17.2 µM (inactive) | 17.8 µM (inactive) | 19.4 µM | 13.7 µM (inactive) | 11.2 µM (inactive) | 5.68 µM (inactive) | 16.5 µM (inactive) | 5.73 µM (inactive) | 20.7 µM (inactive) | 18.5 µM (inactive) |  |  |  |  |  |  |
| Cc1cccc(C(C)C)c1NC(=O)CC1C(=O)Nc2ccccc2S1(=O)=O (centres undefined) | 22.9 µM (inactive) | 17.7 µM (inactive) | 16.8 µM (inactive) | 11.8 µM (inactive) | 9.06 µM (inactive) | 10.2 µM (inactive) | 5.11 µM | 19.4 µM (inactive) | 24.2 µM (inactive) | 15.7 µM (inactive) | 18.6 µM (inactive) | 12.8 µM (inactive) | 6.58 µM (inactive) | > 38.3 µM (inactive) |  |  |  |  |  |  |
| CSc1nc2c(nc(N)n2C2OCC(O)C(O)C2O)c(=O)n1C (centres undefined) | > 100 µM (inactive) | > 100 µM (inactive) | > 100 µM (inactive) | > 100 µM (inactive) | > 100 µM (inactive) | > 100 µM (inactive) |  | > 100 µM (inactive) | > 100 µM (inactive) | > 100 µM (inactive) | > 100 µM (inactive) | > 100 µM (inactive) | > 100 µM (inactive) |  |  |  |  |  |  |  |
| COc1ccc2nc3cc(Cl)ccc3c(NCCC(=O)OCC(O)C(O)C(O[C@H](C)C(=O)NC(C)C(=O)NC(CCC(N)=O)C(=O)OCc3ccccc3)C(C=O)NC(C)=O)c2c1 (some centres undefined) | 17.7 µM (inactive) | 17.7 µM (inactive) | 17.4 µM (inactive) | 17.8 µM (inactive) | 14.4 µM (inactive) |  | 20.7 µM | 19.1 µM (inactive) | 18.2 µM (inactive) | 18 µM (inactive) | 18 µM (inactive) | 16.2 µM (inactive) | 20.2 µM (inactive) | 21.1 µM (inactive) |  |  |  |  |  |  |
| O=C(CSc1c2ccccc2nc2ccccc12)Nc1ccccc1-c1ccccc1NC(=O)CSc1c2ccccc2nc2ccccc12 | 17.4 µM (inactive) | 20.8 µM (inactive) | 13.3 µM (inactive) | 30.8 µM (inactive) | 18.9 µM (inactive) | 21.5 µM (inactive) | 20.2 µM | 21.5 µM (inactive) | 26.7 µM (inactive) | 27.2 µM (inactive) | 23.1 µM (inactive) | 29 µM (inactive) | 26.6 µM (inactive) | 17.6 µM (inactive) |  |  |  |  |  |  |
| O=C1c2ccccc2C2(O)Oc3cccc(O)c3C12O (centres undefined) | > 100 µM (inactive) | > 100 µM (inactive) | > 100 µM (inactive) | > 100 µM (inactive) | > 100 µM (inactive) |  | > 100 µM | > 100 µM (inactive) | > 100 µM (inactive) | > 100 µM (inactive) | > 100 µM (inactive) | > 100 µM (inactive) | > 100 µM (inactive) | > 100 µM (inactive) |  |  |  |  |  |  |
| COc1ccc2nc(C)cc(NCCCCCCCCCNc3cc(C)nc4ccc(OC)cc34)c2c1 | 1.4 µM (inactive) | 15 µM (inactive) | 1.5 µM (inactive) | 1.24 µM (inactive) | 1.73 µM (inactive) | 2.05 µM (inactive) | 2.3 µM | 1.26 µM (inactive) | 2.07 µM (inactive) | 0.279 µM (active) | 14.6 µM (inactive) | 0.396 µM (active) | 6.67 µM (inactive) | 3.79 µM (inactive) | 5.43 µM (inactive) | 1.46 µM (inactive) | 1.73 µM (inactive) | 1.58 µM (inactive) | 8.95 µM (inactive) | 1.02 µM (active) |
| COC(=O)CC(=O)C[P+](c1ccccc1)(c1ccccc1)c1ccccc1 | > 218 µM (inactive) | 196 µM (inactive) | 197 µM (inactive) | 102 µM (inactive) | 141 µM (inactive) | > 218 µM (inactive) | 56.5 µM | > 218 µM (inactive) | > 218 µM (inactive) | 60.7 µM (inactive) | 209 µM (inactive) | 148 µM (inactive) | > 218 µM (inactive) | > 218 µM (inactive) |  |  |  |  |  |  |
| O=C1Nc2ccc(Br)cc2/C1=N/Nc1ccc([N+](=O)[O-])cc1 | 33.3 µM (inactive) | 16.8 µM (inactive) | 19 µM (inactive) | 13.6 µM (inactive) | 22 µM (inactive) | 19.5 µM (inactive) | 27.2 µM | 24.6 µM (inactive) | 18.7 µM (inactive) | 17.1 µM (inactive) | 17.1 µM (inactive) | 17.4 µM (inactive) | 22.8 µM (inactive) | 31 µM (inactive) |  |  |  |  |  |  |
| O=C(Nc1cc(Cl)c(Cl)cc1Cl)C(=O)C(C(=O)c1ccc2ccccc2c1)C1OC(=O)c2ccccc21 (centres undefined) |  | 10.3 µM (inactive) | 19.1 µM (inactive) | 1.96 µM (inactive) | 3.66 µM (inactive) | 3.95 µM (inactive) | 17.3 µM | 14.6 µM (inactive) | 4.47 µM (inactive) | 11 µM (inactive) | 13.6 µM (inactive) | 10.4 µM (inactive) | > 10 µM (inactive) | 14.4 µM (inactive) |  |  |  |  |  |  |
| CCCCNC(=O)C1C2CCC(O2)C1C(=O)O (centres undefined) | 26.2 µM (inactive) | 28 µM (inactive) | 31 µM (inactive) | 12 µM (inactive) | 29.4 µM (inactive) | 2.07 µM (inactive) | 23.7 µM | 56.2 µM (inactive) | 13.6 µM (inactive) | 12 µM (inactive) | 19.3 µM (inactive) | 41 µM (inactive) |  | 27.5 µM (inactive) |  |  |  |  |  |  |
| O=C(O)CCSCCCN1C(=O)c2ccccc2C1=O | > 100 µM (inactive) | > 100 µM (inactive) | > 100 µM (inactive) | > 100 µM (inactive) | > 100 µM (inactive) | > 100 µM (inactive) | > 100 µM | > 100 µM (inactive) | > 100 µM (inactive) | > 100 µM (inactive) | > 100 µM (inactive) |  |  | > 100 µM (inactive) |  |  |  |  |  |  |
| Cc1ccccc1Nc1nc2c(s1)C(=O)c1ccccc1C2=O | 17.7 µM (inactive) | 9.86 µM (inactive) | 10.2 µM (inactive) | 11.9 µM (inactive) | 3.43 µM (inactive) | 8.87 µM (inactive) | 3.78 µM | 9.38 µM (inactive) | 4.09 µM (inactive) | 2.36 µM (inactive) | 1.95 µM (inactive) | 8.67 µM (inactive) | 16.5 µM (inactive) | 16.7 µM (inactive) |  | 1.95 µM (inactive) | 4.53 µM (inactive) |  | 2.46 µM (inactive) | 2.26 µM (inactive) |
